Source: patent US10392398B2, “Inhibitors of Late SV40 Factor (LSF) as cancer chemotherapeutics” (TRUSTEES OF BOSTON UNIVERSITY, priority 2010, dated 2019)
Like-named read-outs stand apart in the source and are kept apart here.

Assays:
Assay type in all cases: cell-based
[1] = system: NIH/3T3 cells; assay: Cell proliferation assay (MTS), NIH/3T3; settings: for GI50 / IC50: Mus musculus, NIH3T3; for IC50: Example 7, FIG. 8, read-out: growth inhibition of NIH/3T3 Cell Line IC50; for antiproliferative activity relative to comparator: against each cell line (NIH/3T3, HeLa, A549), in words
Experimental: (§1) Cells were plated at 3×10^4 cells/mL, A549 and HeLa, and 1×10^4 cells/mL, NIH/3T3, in 96-well plates and incubated for 24 h to allow for cell adhesion. LSF-library compounds were dissolved in DMSO, serial diluted in appropriate medium and added to cells in triplicate (2 plates). DMSO was added to control wells at a final concentration of 1%. After 72 h incubation in the presence of compound, confluent cells were assayed for growth proliferation with CellTiter 96® AQueous One Solution Cell Proliferation Assay (MTS) (Promega) according to the manufacturer's protocol. Plates were read at 490 nm on a microplate reader, and IC50 values were determined as the percentage of compound-treated cell growth to control cell growth. HCC cells—one hour after plating HCC cells onto 96-well plates, compound or vehicle (DMSO) was added to the desired concentrations, keeping DMSO at 0.5%. At indicated time points, cell viability was assayed using the CellTiter 96® Non-Radioactive Cell Proliferation Assay (MTT) (Promega).
(§2) QGY-7703 and A549 cells were cultured at 37° C. in 5% CO2 in DMEM (Dulbecco's modification of Eagle's Medium; Corning) supplemented with 10% Fetal Bovine Serum (FBS; Invitrogen). NIH-3T3 cells were cultured at 37° C. in 5% CO2 in DMEM supplemented with 10% Fetal Calf Serum (FCS; Atlanta Biologicals). For cell viability assays, 1,500 cells were seeded in 96-well plates and treated with FQI-34 or vehicle (DMSO) at appropriate concentrations (DMSO at 1%) after 20 hours. After 72-hour incubation with compound or vehicle, cell growth was assessed via the Promega CellTiter 96® AQueous One Solution Cell Proliferation Assay, a colorimetric method to determine the number of viable cells. 20 μL of the CellTiter 96® AQueous One Solution Reagent was added directly into cultured wells and incubated for one hour, after which the absorbance at 490 nm was read with a 96-well plate reader (Opys MR Microplate Reader). The CellTiter 96® AQueous One Solution contains an MTS tetrazolium compound which is bioreduced by cells into a colored formazan product that is soluble in tissue culture medium. The quantity of formazan product as measured by absorbance is directly proportional to the number of living cells in culture. GI50 values were determined from plots of the percentage of compound-treated cell growth to vehicle cell growth vs. compound concentration (GraphPad Prism; non-linear regression 4-parameter curve fit with variable slope).

[2] = system: HeLa cells; assay: Cell proliferation assay (MTS), HeLa; settings: Homo sapiens; for IC50: HeLa, Example 7, FIG. 8, read-out: growth inhibition of HeLa Cell Line IC50; for GI50: 72 h, MTS
Experimental: as §1

[3] = system: A549 cells; assay: Cell proliferation assay (MTS), A549; settings: Homo sapiens; for GI50: 72 h, MTS, read-out: GI50 (μM) A549; for IC50: Example 7, FIG. 8, read-out: growth inhibition of A549 Cell Line IC50
Experimental: as §1, §2

[4] = biological target: T1, LSF (Homo sapiens, UniProt Q12800); assay: LSF-dependent luciferase reporter assay in NIH 3T3 cells; set-up: expressed in transfected cells; host or cells: NIH 3T3; settings: for activity in the LSF luciferase reporter assay relative to comparator: in words; for IC50: NIH 3T3 cells, dual luciferase, ranges where few concentrations tested, read-out: IC50 (μM) LSF-dependent reporter assat NIH 3T3
T1 sequence (Q12800 1-502): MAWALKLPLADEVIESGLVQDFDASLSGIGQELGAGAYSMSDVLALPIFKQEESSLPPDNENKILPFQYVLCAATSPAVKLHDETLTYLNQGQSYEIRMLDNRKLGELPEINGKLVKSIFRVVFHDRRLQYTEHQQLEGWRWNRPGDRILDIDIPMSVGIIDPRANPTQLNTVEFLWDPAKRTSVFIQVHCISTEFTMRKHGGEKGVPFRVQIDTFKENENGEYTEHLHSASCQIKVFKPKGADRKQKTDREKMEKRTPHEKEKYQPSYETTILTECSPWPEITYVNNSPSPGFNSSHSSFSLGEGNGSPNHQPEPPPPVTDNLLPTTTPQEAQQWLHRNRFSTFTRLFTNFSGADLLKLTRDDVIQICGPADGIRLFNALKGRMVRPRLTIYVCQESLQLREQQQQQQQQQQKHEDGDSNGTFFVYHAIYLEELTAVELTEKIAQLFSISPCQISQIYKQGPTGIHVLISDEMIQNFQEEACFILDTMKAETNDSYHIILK
Experimental: NIH 3T3 cells were transfected with the expression construct pEF1α-LSF, a LSF expression vector^6,20; the reporter construct pGL3B-WT4E1b, a firefly luciferase reporter vector driven by LSF^12; phRL-TK, a control renilla luciferase reporter vector; and pEFGP, essentially as previously described^12. Five hours after transfection, either vehicle (DMSO) or FQI compound was added, keeping DMSO at 0.5%. Cell extracts were harvested 36 hours post-transfection and firefly and renilla luciferase activities measured via a dual luciferase assay (Promega). Five μl of extract was mixed with 30 μl of luciferase assay reagent (Promega), and luminescence measured for 10 seconds using a 20/20n luminometer (Turner Biosystems). Subsequently, 30 μl of Stop & Glo reagent (Promega) was added, and luminescence also measured for 10 seconds. LSF transactivation activity is given as relative luciferase activity, the ratio of firefly to renilla activities.
NIH-3T3 cells were cultured at 37° C. in 5% CO2 in DMEM (Dulbecco's modification of Eagle's Medium; Corning) supplemented with 10% FCS (FCS; Atlanta Biologicals). Approximately 24 hours prior to transfection, 200,000 cells were plated in 35 mm dishes. After 24 hours, cells were ˜70% confluent, and were transfected for 5 hours with pEF1α-LSF, the reporter construct pGL3B-WT4E1b, phRLTK, and pEFGP (Grant, T. J. et al. Antiproliferative small-molecule inhibitors of transcription factor LSF reveal oncogene addiction to LSF in hepatocellular carcinoma. PNAS (2012), 109, 1-6). Vehicle (DMSO) or FQI-34 was then added, keeping the DMSO at 0.5%. Cell extracts were harvested 36 h post-transfection, and firefly and renilla luciferase activities were measured via a dual luciferase assay (Promega Dual-Luciferase Reporter Assay System). Relative luciferase activity represents firefly luciferase activity normalized to that of renilla luciferase in each extract. IC50 values were determined from plots of normalized luciferase activity vs. compound concentration (Prism GraphPad; non-linear regression 4-parameter curve fit with variable slope).

[5] = system: QGY-7703 HCC cells; assay: HCC cell viability (MTT), QGY-7703; settings: in words
Experimental: as §1

[6] = system: cancer cell lines; assay: Inhibition of growth of cancer cell lines in vitro (FIGS. 9 and 10); settings: 0.2-33 μM
Experimental: FIG. 9A-9K show the results of inhibition of growth of cancer cell lines in vitro by FQI1 (Formula (IV)). The effect of inhibition of cell growth (represented as a fraction of 1) of increasing concentrations of FQI1 between 0.2-33 μM is shown.
The effect of inhibition of cell growth (represented as a fraction of 1) of increasing concentrations of FQI2 between 0.2-33 μM is shown.

[7] = system: QGY-7703 cells; assay: Cell viability GI50 (MTS), QGY-7703; settings: Homo sapiens
Experimental: as §2

[8] = 72 h, MTS, read-out: GI50 (μM) NIH/3T3
[9] = Table 3, read-out: GI50 (μM) NIH 3T3

| IC50 [2] [µM] | IC50 [3] [µM] | IC50 [4] [µM] | SMILES | IC50 [1] [µM] | GI50 [1, 9] [µM] | also measured |
| --- | --- | --- | --- | --- | --- | --- |
| 8 ± 1 | 18 ± 3.2 |  | CCOc1ccccc1[C@@H]1CC(=O)Nc2cc3c(cc21)OCO3 [(R)-FQI1] | 45 ± 6.9 |  | GI50 [1, 8]: 45 ± 7 µM; times less active than FQI1 in cell proliferation assays ([1]; NIH/3T3, HeLa and A549): ~10 times; GI50 [2]: 8 ± 1 µM; GI50 [3]: 18 ± 3.2 µM; activity in the LSF luciferase reporter assay relative to comparator [4]: much less active than the racemate |
| 0.3 ± 0.025 | 3 ± 1.3 | 0.8 | CCOc1ccccc1[C@H]1CC(=O)Nc2cc3c(cc21)OCO3 [(S)-FQI1] | 1.1 ± 0.45 | 1.1 ± 0.4 | GI50 [1, 8]: 1.1 ± 0.41 µM; antiproliferative activity relative to comparator [1]: at least twice as active; GI50 [2]: 0.3 ± 0.03 µM; GI50 [3]: 3 ± 1.3 µM; fold more active than the racemate in the luciferase reporter assay ([4]; versus racemic FQI1): approximately 3 fold |
|  |  | 0.8 | CCOc1ccccc1-c1cc(=O)[nH]c2cc3c(cc12)OCO3 [FQI2, 8-(2-ethoxyphenyl)-[1,3]dioxolo[4,5-g]quinolin-6(5H)-one] |  | 0.71 ± 0.13 | GI50 [1, 8]: 0.71 ± 0.13 µM; antiproliferative activity relative to comparator [1]: as active as (S)-FQI1; GI50 [2]: 0.4 ± 0.04 µM; GI50 [3]: 1.9 ± 0.9 µM; cellular proliferation of QGY-7703 cells (MTT) [5]: decreased overall cellular proliferation; growth of a variety of cancers, in vitro cell assay [6]: inhibit the growth of a variety of cancers; activity in the LSF luciferase reporter assay relative to comparator [4]: as effective as the (S)-enantiomer |
| 6.6 ± 1.2 | > 300 |  | CCOc1ccccc1C1CC(=O)Nc2cc3c(cc21)OC(F)(F)O3 (stereo not drawn) [FQI9, 8-(2-ethoxyphenyl)-2,2-difluoro-7,8-dihydro-[1,3]dioxolo[4,5-g]quinolin-6(5H)-one] | 30 ± 3.5 |  |  |
| > 200 | > 200 |  | CCOc1ccccc1C1CC(=O)Nc2cc(OC)c(OC)c(OC)c21 (stereo not drawn) [FQI11, 4-(2-ethoxyphenyl)-5,6,7-trimethoxy-3,4-dihydroquinolin-2(1H)-one] | > 200 |  |  |
|  |  | 3 to 4 | COc1ccccc1C1CC(=O)Nc2cc3c(cc21)OCO3 (stereo not drawn) [FQI12, 8-(2-methoxyphenyl)-7,8-dihydro-[1,3]dioxolo[4,5-g]quinolin-6(5H)-one] |  | 4 ± 0.8 |  |
| 8.8 ± 1.4 | > 300 |  | COc1ccccc1C1CC(=O)Nc2cc3c(cc21)OC(F)(F)O3 (stereo not drawn) [FQI13, 2,2-difluoro-8-(2-methoxyphenyl)-7,8-dihydro-[1,3]dioxolo[4,5-g]quinolin-6(5H)-one] | 72 ± 9.8 |  |  |
|  | > 10000 |  | COc1ccc2c(c1)C(c1ccccc1OC)CC(=O)N2 (stereo not drawn) [FQI14, 6-methoxy-4-(2-methoxyphenyl)-3,4-dihydroquinolin-2(1H)-one] |  |  |  |
| > 200 | > 200 |  | COc1ccccc1C1CC(=O)Nc2cc(OC)c(OC)c(OC)c21 (stereo not drawn) [FQI15, 5,6,7-trimethoxy-4-(2-methoxyphenyl)-3,4-dihydroquinolin-2(1H)-one] | > 200 |  |  |
|  |  | 2 to 4 | CCCOc1ccccc1C1CC(=O)Nc2cc3c(cc21)OCO3 (stereo not drawn) [FQI16, 8-(2-propoxyphenyl)-7,8-dihydro-[1,3]dioxolo[4,5-g]quinolin-6(5H)-one] |  | 2.3 ± 0.5 |  |
| > 200 | > 200 |  | COc1ccc(C2CC(=O)Nc3cc4c(cc32)OCO4)cc1 (stereo not drawn) [FQI19, 8-(4-methoxyphenyl)-7,8-dihydro-[1,3]dioxolo[4,5-g]quinolin-6(5H)-one] | > 200 |  |  |
| 67 ± 9.9 | > 200 |  | COc1ccc(C2CC(=O)Nc3ccc(OC)cc32)cc1 (stereo not drawn) [FQI21, 6-methoxy-4-(4-methoxyphenyl)-3,4-dihydroquinolin-2(1H)-one] | > 200 |  |  |
|  |  |  | CCOCCOCCOCCCc1ccc(C2CC(=O)Nc3cc4c(cc32)OCO4)c(OCC)c1 (stereo not drawn) [PEG-FQI] |  |  | GI50 ([7]; Table 5, read-out: QGY-7703 GI50): > 10 µM; GI50 ([7]; Table 8, read-out: QGY-7703 GI50): > 10 µM |

| SMILES | IC50 [2] [µM] | IC50 [3] [µM] | IC50 [4] [µM] | IC50 [1] [µM] | GI50 [1, 9] [µM] | also measured |
| --- | --- | --- | --- | --- | --- | --- |
| CCCCOc1ccccc1C1CC(=O)Nc2cc3c(cc21)OCO3 (stereo not drawn) [FQI3, 8-(2-Butoxyphenyl)-7,8-dihydro-[1,3]dioxolo[4,5-g]quinolin-6(5H)-one] |  |  | 3 to 5 |  | 2.6 ± 0.5 |  |
